Assay results published in ChEMBL document CHEMBL1671678, “Probing the antimalarial mechanism of artemisinin and OZ277 (arterolane) with nonperoxidic isosteres and nitroxyl radicals” (Antimicrob Agents Chemother, 2010).
Values after ≈ are worked out from the molar mass of the structure shown.

How the values were obtained:
Plasmodium falciparum [1] = test: Antimalarial activity against Plasmodium falciparum NF54 by [3H]hypoxanthine incorporation assay; format: functional, organism-based
Plasmodium falciparum [2] = test: Antimalarial activity against Plasmodium falciparum K1 by [3H]hypoxanthine incorporation assay; format: functional, organism-based
Plasmodium falciparum [3] = test: Antimalarial activity against Plasmodium falciparum NF54 by [3H]hypoxanthine incorporation assay in presence 1:3 ratio of compound to carbaOZ277; format: functional
Plasmodium falciparum [4] = test: Antimalarial activity against Plasmodium falciparum NF54 by [3H]hypoxanthine incorporation assay in presence 3:1 ratio of compound to deoxyartemisinin; format: functional
Plasmodium falciparum [5] = test: Antimalarial activity against Plasmodium falciparum NF54 by [3H]hypoxanthine incorporation assay in presence 1:1 ratio of compound to deoxyartemisinin; format: functional
Plasmodium falciparum [6] = test: Antimalarial activity against Plasmodium falciparum NF54 by [3H]hypoxanthine incorporation assay in presence 1:3 ratio of compound to deoxyartemisinin; format: functional
Plasmodium falciparum [7] = test: Antimalarial activity against Plasmodium falciparum NF54 by [3H]hypoxanthine incorporation assay in presence of 3:1 ratio of compound to 4-amino-2,2,6,6,-tetramethyl-1-piperidinyloxy; format: functional
Plasmodium falciparum [8] = test: Antimalarial activity against Plasmodium falciparum NF54 by [3H]hypoxanthine incorporation assay in presence of 1:1 ratio of compound to 4-amino-2,2,6,6,-tetramethyl-1-piperidinyloxy; format: functional
Plasmodium falciparum [9] = test: Antimalarial activity against Plasmodium falciparum NF54 by [3H]hypoxanthine incorporation assay in presence of 1:3 ratio of compound to 4-amino-2,2,6,6,-tetramethyl-1-piperidinyloxy; format: functional
Plasmodium falciparum [10] = test: Antimalarial activity against Plasmodium falciparum NF54 by [3H]hypoxanthine incorporation assay in presence of 3:1 ratio of compound to 4-carboxy-2,2,6,6,-tetramethyl-1-piperidinyloxy; format: functional
Plasmodium falciparum [11] = test: Antimalarial activity against Plasmodium falciparum NF54 by [3H]hypoxanthine incorporation assay in presence of 1:1 ratio of compound to 4-carboxy-2,2,6,6,-tetramethyl-1-piperidinyloxy; format: functional
Plasmodium falciparum [12] = test: Antimalarial activity against Plasmodium falciparum NF54 by [3H]hypoxanthine incorporation assay in presence of 1:3 ratio of compound to 4-carboxy-2,2,6,6,-tetramethyl-1-piperidinyloxy; format: functional
Plasmodium falciparum [13] = test: Antimalarial activity against Plasmodium falciparum NF54 by [3H]hypoxanthine incorporation assay in presence of 3:1 ratio of compound to 4-hydroxy-2,2,6,6,-tetramethyl-1-piperidinyloxy; format: functional
Plasmodium falciparum [14] = test: Antimalarial activity against Plasmodium falciparum NF54 by [3H]hypoxanthine incorporation assay in presence of 1:1 ratio of compound to 4-hydroxy-2,2,6,6,-tetramethyl-1-piperidinyloxy; format: functional
Plasmodium falciparum [15] = test: Antimalarial activity against Plasmodium falciparum NF54 by [3H]hypoxanthine incorporation assay in presence of 1:3 ratio of compound to 4-hydroxy-2,2,6,6,-tetramethyl-1-piperidinyloxy; format: functional
Plasmodium falciparum [16] = test: Antimalarial activity against Plasmodium falciparum NF54 by [3H]hypoxanthine incorporation assay in presence of 3:1 ratio of compound to 4-oxo-2,2,6,6,-tetramethyl-1-piperidinyloxy; format: functional
Plasmodium falciparum [17] = test: Antimalarial activity against Plasmodium falciparum NF54 by [3H]hypoxanthine incorporation assay in presence of 1:1 ratio of compound to 4-oxo-2,2,6,6,-tetramethyl-1-piperidinyloxy; format: functional
Plasmodium falciparum [18] = test: Antimalarial activity against Plasmodium falciparum NF54 by [3H]hypoxanthine incorporation assay in presence of 1:3 ratio of compound to 4-oxo-2,2,6,6,-tetramethyl-1-piperidinyloxy; format: functional
Plasmodium falciparum [19] = test: Antimalarial activity against Plasmodium falciparum NF54 by [3H]hypoxanthine incorporation assay in presence of 3:1 ratio of compound to 2,2,6,6,-tetramethyl-1-piperidinyloxy; format: functional
Plasmodium falciparum [20] = test: Antimalarial activity against Plasmodium falciparum NF54 by [3H]hypoxanthine incorporation assay in presence of 1:1 ratio of compound to 2,2,6,6,-tetramethyl-1-piperidinyloxy; format: functional
Plasmodium falciparum [21] = test: Antimalarial activity against Plasmodium falciparum NF54 by [3H]hypoxanthine incorporation assay in presence of 1:3 ratio of compound to 2,2,6,6,-tetramethyl-1-piperidinyloxy; format: functional
Plasmodium falciparum [22] = test: Antimalarial activity against Plasmodium falciparum NF54 by [3H]hypoxanthine incorporation assay in presence of carbaOZ277; format: functional
Plasmodium falciparum [23] = test: Antimalarial activity against Plasmodium falciparum NF54 by [3H]hypoxanthine incorporation assay in presence of deoxyartemisinin; format: functional
Plasmodium falciparum [24] = test: Antimalarial activity against Plasmodium falciparum NF54 by [3H]hypoxanthine incorporation assay in presence of 4-amino-2,2,6,6,-tetramethyl-1-piperidinyloxy; format: functional
Plasmodium falciparum [25] = test: Antimalarial activity against Plasmodium falciparum NF54 by [3H]hypoxanthine incorporation assay in presence of 4-carboxy-2,2,6,6,-tetramethyl-1-piperidinyloxy; format: functional
Plasmodium falciparum [26] = test: Antimalarial activity against Plasmodium falciparum NF54 by [3H]hypoxanthine incorporation assay in presence of 4-hydroxy-2,2,6,6,-tetramethyl-1-piperidinyloxy; format: functional
Plasmodium falciparum [27] = test: Antimalarial activity against Plasmodium falciparum NF54 by [3H]hypoxanthine incorporation assay in presence of 4-oxo-2,2,6,6,-tetramethyl-1-piperidinyloxy; format: functional
Plasmodium falciparum [28] = test: Antimalarial activity against Plasmodium falciparum NF54 by [3H]hypoxanthine incorporation assay in presence of 2,2,6,6,-tetramethyl-1-piperidinyloxy; format: functional
Plasmodium falciparum [29] = test: Antimalarial activity against Plasmodium falciparum NF54 by [3H]hypoxanthine incorporation assay in presence 1:1 ratio of compound to carbaOZ277; format: functional
Plasmodium falciparum [30] = test: Antimalarial activity against Plasmodium falciparum NF54 by [3H]hypoxanthine incorporation assay in presence 3:1 ratio of compound to carbaOZ277; format: functional
[31] = Plasmodium falciparum, K1, read-out: IC50

Structure (SMILES): CC1(C)CC(C(=O)O)CC(C)(C)N1[O]
- IC50 (Plasmodium falciparum [1]): 0.00054 µg/mL (≈ 0.0027 µM)
- IC50 (Plasmodium falciparum [2]): 0.00057 µg/mL (≈ 0.00285 µM)

Structure (SMILES): CC(C)(N)CNC(=O)CC1CC[C@]2(CC1)OC[C@]1(O2)C2CC3CC(C2)CC1C3 (stereo partly drawn)
- IC50 (Plasmodium falciparum [2]; [31]): 12 µg/mL (≈ 30.7 µM)

Structure (SMILES): CC1(C)CC(=O)CC(C)(C)N1[O]
- IC50 (Plasmodium falciparum [2]; [31]): 2.2 µg/mL (≈ 12.9 µM)

Structure (SMILES): C[C@@H]1CC[C@H]2[C@@H](C)C(=O)O[C@@H]3O[C@@]4(C)CC[C@@H]1[C@]32OO4 [ARTEMISININ]
- FIC50 (Plasmodium falciparum [3]): 1.1
- FIC50 (Plasmodium falciparum [4]): 1
- FIC50 (Plasmodium falciparum [5]): 1.1
- FIC50 (Plasmodium falciparum [6]): 1.2
- FIC50 (Plasmodium falciparum [7]): 2.8
- FIC50 (Plasmodium falciparum [8]): 1.9
- FIC50 (Plasmodium falciparum [9]): 1.3
- FIC50 (Plasmodium falciparum [10]): 1.2
- FIC50 (Plasmodium falciparum [11]): 1.4
- FIC50 (Plasmodium falciparum [12]): 1.4
- FIC50 (Plasmodium falciparum [13]): 2.5
- FIC50 (Plasmodium falciparum [14]): 4
- FIC50 (Plasmodium falciparum [15]): 1.8
- FIC50 (Plasmodium falciparum [16]): 2
- FIC50 (Plasmodium falciparum [17]): 2.6
- FIC50 (Plasmodium falciparum [18]): 2.3
- FIC50 (Plasmodium falciparum [19]): 2.2
- FIC50 (Plasmodium falciparum [20]): 2.1
- FIC50 (Plasmodium falciparum [21]): 1.3
- FIC50 (Plasmodium falciparum [22]): 1.1
- FIC50 (Plasmodium falciparum [23]): 1.1
- FIC50 (Plasmodium falciparum [24]): 2
- FIC50 (Plasmodium falciparum [25]): 1.3
- FIC50 (Plasmodium falciparum [26]): 2.8
- FIC50 (Plasmodium falciparum [27]): 2.3
- FIC50 (Plasmodium falciparum [28]): 1.9
- FIC50 (Plasmodium falciparum [29]): 1.1
- FIC50 (Plasmodium falciparum [30]): 1.1

Structure (SMILES): C[C@@H]1CC[C@H]2[C@@H](C)C(=O)O[C@@H]3O[C@@]4(C)CC[C@@H]1[C@]32O4 [DEOXYARTEMISININ]
- IC50 (Plasmodium falciparum [2]; [31]): 34 µg/mL (≈ 128 µM)

Structure (SMILES): CC(C)(N)CNC(=O)C[C@H]1CC[C@]2(CC1)OO[C@]1(O2)C2CC3CC(C2)CC1C3 [OZ277]
- FIC50 (Plasmodium falciparum [3]): 1.2
- FIC50 (Plasmodium falciparum [4]): 1.2
- FIC50 (Plasmodium falciparum [5]): 1.3
- FIC50 (Plasmodium falciparum [6]): 1.4
- FIC50 (Plasmodium falciparum [7]): 1.7
- FIC50 (Plasmodium falciparum [8]): 2.4
- FIC50 (Plasmodium falciparum [9]): 2.3
- FIC50 (Plasmodium falciparum [10]): 1.2
- FIC50 (Plasmodium falciparum [11]): 1.3
- FIC50 (Plasmodium falciparum [12]): 1.3
- FIC50 (Plasmodium falciparum [13]): 1.2
- FIC50 (Plasmodium falciparum [14]): 1.3
- FIC50 (Plasmodium falciparum [15]): 1.5
- FIC50 (Plasmodium falciparum [16]): 1.1
- FIC50 (Plasmodium falciparum [17]): 1.3
- FIC50 (Plasmodium falciparum [18]): 1.4
- FIC50 (Plasmodium falciparum [19]): 1.2
- FIC50 (Plasmodium falciparum [20]): 1.5
- FIC50 (Plasmodium falciparum [21]): 1.8
- FIC50 (Plasmodium falciparum [22]): 1.3
- FIC50 (Plasmodium falciparum [23]): 1.2
- FIC50 (Plasmodium falciparum [24]): 2.1
- FIC50 (Plasmodium falciparum [25]): 1.3
- FIC50 (Plasmodium falciparum [26]): 1.3
- FIC50 (Plasmodium falciparum [27]): 1.3
- FIC50 (Plasmodium falciparum [28]): 1.5
- FIC50 (Plasmodium falciparum [29]): 1.2
- FIC50 (Plasmodium falciparum [30]): 1.1

Structure (SMILES): CC1(C)CC(N)CC(C)(C)N1[O] [TEMPAMINE]
- IC50 (Plasmodium falciparum [2]; [31]): 16 µg/mL (≈ 93.4 µM)

Structure (SMILES): CC1(C)CC(O)CC(C)(C)N1[O] [TEMPOL]
- IC50 (Plasmodium falciparum [2]; [31]): 19 µg/mL (≈ 110 µM)
